# Reference: patent EP1852441B1, “Agents that modulate EPH receptor activity” (The Burnham Institute, priority 2002, dated 2004)
# Assays:
# EphA2 = EphA2 tyrosine phosphorylation and MAP kinase signaling in HUVE cells; type: cell-based, human; details: in the absence of ephrin
# Procedure: Ephin-A1 Fc was cross-linked by preincubation with 0.2 µg/ml anti-human fc antibodies for 30 minutes on ice. After stimulation, the cells were lysed in modified RIPA buffer {Ogawa, K. et al. 2000 Oncogene 19: 6043-6052). Cell lysates were immunoprecipitated with 5 µg anti-EphA2 antibody (Upstate, Lake Placid, NY), separated by SDS polyacrylamide gel electrophoresis and probed by immunobloting with peroxidase-conjugated anti-phosphotyrosine antibody (Transduction Laboratories, San Diego, CA) or anti-EphA2 antibody followed by a secondary anti-mouse IgG peroxidase-conjugated antibody (Amersham).
# (§1) Cell lysates were used to immunoprecipitate EphA2 as described above or probed by immunoblotting with anti-phospho-p44/p42 MAPK antibody (Cell Signaling Technology, Beverly, MA) followed by an anti-mouse IgG peroxidase-conjugated antibody (Amersham) and re-probed with an anti-ERK2 antibody (Santa Cruz Biotechnology, Santa Cruz, CA) followed by a secondary anti-rabbit IgG peroxidase-conjugated antibody (Amersham). Erk2 (p42 MAP kinase) is the major phosphorylated form present. EphA2 was immunoprecipitated (IP) and probed by immunoblotting with anti-ghosphotyrosine (PTyr) or anti-EphA2 antibodies.
# endogenous EphA4 = target: T1, endogenous EphA4 (Mus musculus, UniProt Q03137); assay: ephrin-A3 Fc induced EphA4 tyrosine phosphorylation in hippocampal slices (immunoblot); type: cell-based; details: peptide together with ephrin-A3 Fc, micromolar concentrations
# T1 construct: tyrosine phosphorylation of endogenous EphA4; from tissue; host or cells: mouse hippocampal slices
# neural crest cells [1] = assay: Neural crest cell migration assay in trunk explants; type: cell-based; details: 13 µM peptide, 24 hours, chick trunk explants
# Procedure: (§2) In this example to address whether the EphA4-binding peptides can inhibit endogenous ephrin-EphA4 physiological function, a neural crest cell migration assay (McLennan, R. & Krull, C.E. 2002 Gene Expr 10:295-305) was utilized. […] The migration of neural crest cells was determined by staining for HNK-1 for neural crest cells and ephrin-B1 to label the caudal sclerotome. […] Neural crest cells migrated properly into the rostral sclerotome in explants treated with control Fc.
# MAP kinase = MAP kinase phosphorylation in HUVE cells (immunoblot); type: cell-based, human; details: non-serum starved HUVE cells
# From the text: as §1
# neural crest cells [2] = assay: neural crest cell migration assay in trunk explants; type: cell-based, Chick; details: 24 hours, 13 µM KYL peptide, 10 µg/ml EphA4-Fc
# Procedure: as §2
# T1 sequence (Q03137 20-986): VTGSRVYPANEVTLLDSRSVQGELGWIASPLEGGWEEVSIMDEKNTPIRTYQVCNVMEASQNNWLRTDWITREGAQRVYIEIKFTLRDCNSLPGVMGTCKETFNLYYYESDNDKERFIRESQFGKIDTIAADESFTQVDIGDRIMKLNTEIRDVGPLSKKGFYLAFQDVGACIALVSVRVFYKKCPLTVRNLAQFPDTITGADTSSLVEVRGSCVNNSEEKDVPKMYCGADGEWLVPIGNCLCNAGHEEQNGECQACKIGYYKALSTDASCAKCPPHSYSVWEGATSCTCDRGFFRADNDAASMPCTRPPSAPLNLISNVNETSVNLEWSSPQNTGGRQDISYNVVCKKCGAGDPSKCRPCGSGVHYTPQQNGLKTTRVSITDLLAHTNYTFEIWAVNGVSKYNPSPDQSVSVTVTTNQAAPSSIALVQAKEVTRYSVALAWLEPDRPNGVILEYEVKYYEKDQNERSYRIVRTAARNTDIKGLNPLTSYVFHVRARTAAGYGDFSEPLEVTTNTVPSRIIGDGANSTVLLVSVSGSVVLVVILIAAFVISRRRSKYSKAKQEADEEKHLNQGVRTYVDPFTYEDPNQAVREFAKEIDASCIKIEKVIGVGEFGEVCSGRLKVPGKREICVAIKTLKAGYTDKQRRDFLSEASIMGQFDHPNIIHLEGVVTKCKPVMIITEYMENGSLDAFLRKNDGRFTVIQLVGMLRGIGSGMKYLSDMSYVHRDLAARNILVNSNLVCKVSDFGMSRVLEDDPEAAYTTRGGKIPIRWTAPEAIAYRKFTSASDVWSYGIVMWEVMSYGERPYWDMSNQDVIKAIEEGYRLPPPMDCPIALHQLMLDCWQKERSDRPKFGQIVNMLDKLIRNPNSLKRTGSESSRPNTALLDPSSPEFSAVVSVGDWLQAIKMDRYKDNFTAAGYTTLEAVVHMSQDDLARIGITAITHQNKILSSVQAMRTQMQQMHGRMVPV
molecule,measurement,setting,value
CSCC[C@H](NC(=O)[C@H](CCSC)NC(=O)[C@@H]1CCCN1C(=O)[C@@H](NC(=O)[C@H](CO)NC(=O)[C@H](CC(=O)O)NC(=O)[C@@H]1CCCN1C(=O)[C@H](Cc1ccc(O)cc1)NC(=O)[C@H](C)NC(=O)[C@H](CO)NC(=O)[C@@H](N)Cc1ccc(O)cc1)C(C)C)C(=O)N[C@@H](CO)C(=O)O [YSA peptide],"functional effect on EphA2 (tyrosine phosphorylation, suppression of MAP kinase)",EphA2,agonist for EphA2
VTMEAINLAFPG,ephrin-A3-induced tyrosine phosphorylation of endogenous EphA4,endogenous EphA4,antagonize
KYLPYWPVLSSL [KYL peptide],migration of neural crest cells,neural crest cells [1],ectopic migration of neural crest cells into the caudal half-selerotome
CSCC[C@H](NC(=O)[C@H](CCSC)NC(=O)[C@@H]1CCCN1C(=O)[C@@H](NC(=O)[C@H](CO)NC(=O)[C@H](CC(=O)O)NC(=O)[C@@H]1CCCN1C(=O)[C@H](Cc1ccc(O)cc1)NC(=O)[C@H](C)NC(=O)[C@H](CO)NC(=O)[C@@H](N)Cc1ccc(O)cc1)C(C)C)C(=O)N[C@@H](CO)C(=O)NCC(=O)N[C@@H](CO)C(=O)NCC(=O)N[C@@H](CO)C(=O)N[C@@H](CCCCNC(=O)CCCC[C@@H]1SC[C@@H]2NC(=O)N[C@@H]21)C(=O)O [YSA peptide],MAP kinase activation,MAP kinase,suppresses MAP kinase activation
KYLPYWPVLSSL,ephrin-A3-induced tyrosine phosphorylation of endogenous EphA4,endogenous EphA4,antagonize
same,ephrin-A3-induced tyrosine phosphorylation of endogenous EphA4,endogenous EphA4; listed as KYL peptide,lower concentrations than the APY and VTM peptides
same,migration of neural crest cells,neural crest cells [2],ectopic migration of neural crest cells into the caudal half-selerotome
